In ChEMBL document CHEMBL3352031, “Discovery of diamine-linked 17-aroylamido-17-demethoxygeldanamycins as potent Hsp90 inhibitors” (Eur J Med Chem, 2014):

What follows are compounds tested on MDA-MB-231 (assay: cells). Conditions: Homo sapiens, MDA-MB-231, 72 h.
Description: Cytotoxicity against human MDA-MB-231 cells after 72 hrs by MTT assay
`COc1ccc(OC)c(/C=C/C(=O)NCCCCCCNC2=C3C[C@@H](C)C[C@H](OC)[C@H](O)[C@@H](C)/C=C(\C)[C@H](OC(N)=O)[C@@H](OC)/C=C\C=C(/C)C(=O)NC(=CC2=O)C3=O)c1` gave an IC50 of 8.15 µM. In the case of `CO[C@H]1/C=C\C=C(/C)C(=O)NC2=CC(=O)C(NCCCCNC(=O)c3cccnc3)=C(C[C@@H](C)C[C@H](OC)[C@H](O)[C@@H](C)/C=C(\C)[C@@H]1OC(N)=O)C2=O`, the IC50 is reported as 4.09 µM. `COc1ccc(/C=C/C(=O)NCCCCCCNC2=C3C[C@@H](C)C[C@H](OC)[C@H](O)[C@@H](C)/C=C(\C)[C@H](OC(N)=O)[C@@H](OC)/C=C\C=C(/C)C(=O)NC(=CC2=O)C3=O)cc1` gave an IC50 of 4.54 µM. In the case of `CO[C@H]1/C=C\C=C(/C)C(=O)NC2=CC(=O)C(NCCCCCCNC(=O)/C=C/c3ccc(C)cc3)=C(C[C@@H](C)C[C@H](OC)[C@H](O)[C@@H](C)/C=C(\C)[C@@H]1OC(N)=O)C2=O`, the IC50 is reported as 3.96 µM. `CO[C@H]1/C=C\C=C(/C)C(=O)NC2=CC(=O)C(NCCCCCCNC(=O)c3cccnc3)=C(C[C@@H](C)C[C@H](OC)[C@H](O)[C@@H](C)/C=C(\C)[C@@H]1OC(N)=O)C2=O` showed an IC50 of 0.5 µM. Compound `CO[C@H]1/C=C\C=C(/C)C(=O)NC2=CC(=O)C(NCCCCCCNC(=O)/C=C/c3ccc(N(C)C)cc3)=C(C[C@@H](C)C[C@H](OC)[C@H](O)[C@@H](C)/C=C(\C)[C@@H]1OC(N)=O)C2=O` has an IC50 of 2.11 µM. With `COc1ccccc1/C=C/C(=O)NCCCCCCNC1=C2C[C@@H](C)C[C@H](OC)[C@H](O)[C@@H](C)/C=C(\C)[C@H](OC(N)=O)[C@@H](OC)/C=C\C=C(/C)C(=O)NC(=CC1=O)C2=O` the IC50 was 3.32 µM. Compound `CO[C@H]1/C=C\C=C(/C)C(=O)NC2=CC(=O)C(NCCCCCCNC(=O)c3ccc([N+](=O)[O-])cc3)=C(C[C@@H](C)C[C@H](OC)[C@H](O)[C@@H](C)/C=C(\C)[C@@H]1OC(N)=O)C2=O` has an IC50 of 2.95 µM. For `COc1ccc(/C=C/C(=O)NCCCCCCNC2=C3C[C@@H](C)C[C@H](OC)[C@H](O)[C@@H](C)/C=C(\C)[C@H](OC(N)=O)[C@@H](OC)/C=C\C=C(/C)C(=O)NC(=CC2=O)C3=O)cc1O`, the IC50 was 1.47 µM. With `CO[C@H]1/C=C\C=C(/C)C(=O)NC2=CC(=O)C(NCCCCCCNC(=O)/C=C/c3ccccc3[N+](=O)[O-])=C(C[C@@H](C)C[C@H](OC)[C@H](O)[C@@H](C)/C=C(\C)[C@@H]1OC(N)=O)C2=O` the IC50 was 1.61 µM. `CO[C@H]1/C=C\C=C(/C)C(=O)NC2=CC(=O)C(NCCCCCCNC(=O)c3ccncn3)=C(C[C@@H](C)C[C@H](OC)[C@H](O)[C@@H](C)/C=C(\C)[C@@H]1OC(N)=O)C2=O` showed an IC50 of 0.92 µM. `CO[C@H]1/C=C\C=C(/C)C(=O)NC2=CC(=O)C(NCCCCCCNC(=O)c3cc(O)cc(O)c3)=C(C[C@@H](C)C[C@H](OC)[C@H](O)[C@@H](C)/C=C(\C)[C@@H]1OC(N)=O)C2=O` was tested, and the IC50 was 4.35 µM. In the case of `CO[C@H]1/C=C\C=C(/C)C(=O)NC2=CC(=O)C(NCCCCCCNC(=O)c3ccncc3)=C(C[C@@H](C)C[C@H](OC)[C@H](O)[C@@H](C)/C=C(\C)[C@@H]1OC(N)=O)C2=O`, the IC50 is reported as 0.89 µM. Compound `CO[C@H]1/C=C\C=C(/C)C(=O)NC2=CC(=O)C(NCCCCNC(=O)c3nc(C)c(C)nc3C)=C(C[C@@H](C)C[C@H](OC)[C@H](O)[C@@H](C)/C=C(\C)[C@@H]1OC(N)=O)C2=O` has an IC50 of 8.45 µM. `CO[C@H]1/C=C\C=C(/C)C(=O)NC2=CC(=O)C(NCC3CCN(C(=O)c4ccccn4)CC3)=C(C[C@@H](C)C[C@H](OC)[C@H](O)[C@@H](C)/C=C(\C)[C@@H]1OC(N)=O)C2=O` was tested, and the IC50 was 1.12 µM. `CO[C@H]1/C=C\C=C(/C)C(=O)NC2=CC(=O)C(NCC3CCN(C(=O)c4ccccc4O)CC3)=C(C[C@@H](C)C[C@H](OC)[C@H](O)[C@@H](C)/C=C(\C)[C@@H]1OC(N)=O)C2=O` showed an IC50 of 1.82 µM. With `CO[C@H]1/C=C\C=C(/C)C(=O)NC2=CC(=O)C(NCCCCCCNC(=O)c3ccccc3O)=C(C[C@@H](C)C[C@H](OC)[C@H](O)[C@@H](C)/C=C(\C)[C@@H]1OC(N)=O)C2=O` the IC50 was 6.04 µM. In the case of `CO[C@H]1/C=C\C=C(/C)C(=O)NC2=CC(=O)C(NCCCCCCNC(=O)/C=C/c3cccc([N+](=O)[O-])c3)=C(C[C@@H](C)C[C@H](OC)[C@H](O)[C@@H](C)/C=C(\C)[C@@H]1OC(N)=O)C2=O`, the IC50 is reported as 1.02 µM. `CO[C@H]1/C=C\C=C(/C)C(=O)NC2=CC(=O)C(NCCCCCCNC(=O)/C=C/c3cccc(C)c3)=C(C[C@@H](C)C[C@H](OC)[C@H](O)[C@@H](C)/C=C(\C)[C@@H]1OC(N)=O)C2=O` was tested, and the IC50 was 2.55 µM. In the case of `CO[C@H]1/C=C\C=C(/C)C(=O)NC2=CC(=O)C(NCCCCCCNC(=O)/C=C/c3ccc(O)cc3)=C(C[C@@H](C)C[C@H](OC)[C@H](O)[C@@H](C)/C=C(\C)[C@@H]1OC(N)=O)C2=O`, the IC50 is reported as 0.97 µM. `CO[C@H]1/C=C\C=C(/C)C(=O)NC2=CC(=O)C(NCCCCCCNC(=O)c3cncc(Br)c3)=C(C[C@@H](C)C[C@H](OC)[C@H](O)[C@@H](C)/C=C(\C)[C@@H]1OC(N)=O)C2=O` was tested, and the IC50 was 2.35 µM. Work on `CO[C@H]1/C=C\C=C(/C)C(=O)NC2=CC(=O)C(NCCCCCCNC(=O)/C=C/c3ccccc3)=C(C[C@@H](C)C[C@H](OC)[C@H](O)[C@@H](C)/C=C(\C)[C@@H]1OC(N)=O)C2=O` yielded an IC50 of 5.14 µM. With `CO[C@H]1/C=C\C=C(/C)C(=O)NC2=CC(=O)C(NCCCCCCNC(=O)c3ccc(I)cc3)=C(C[C@@H](C)C[C@H](OC)[C@H](O)[C@@H](C)/C=C(\C)[C@@H]1OC(N)=O)C2=O` the IC50 was 3.96 µM. With `CO[C@H]1/C=C\C=C(/C)C(=O)NC2=CC(=O)C(NCCCCNC(=O)c3ccncc3)=C(C[C@@H](C)C[C@H](OC)[C@H](O)[C@@H](C)/C=C(\C)[C@@H]1OC(N)=O)C2=O` the IC50 was 3.45 µM. For `COc1cc(/C=C/C(=O)NCCCCCCNC2=C3C[C@@H](C)C[C@H](OC)[C@H](O)[C@@H](C)/C=C(\C)[C@H](OC(N)=O)[C@@H](OC)/C=C\C=C(/C)C(=O)NC(=CC2=O)C3=O)cc(OC)c1`, the IC50 was 1.7 µM. `CO[C@H]1/C=C\C=C(/C)C(=O)NC2=CC(=O)C(NCCCCCCNC(=O)/C=C/c3cccc(Cl)c3)=C(C[C@@H](C)C[C@H](OC)[C@H](O)[C@@H](C)/C=C(\C)[C@@H]1OC(N)=O)C2=O` showed an IC50 of 5.23 µM. `CO[C@H]1/C=C\C=C(/C)C(=O)NC2=CC(=O)C(NCCCCCCNC(=O)c3ccccc3Cl)=C(C[C@@H](C)C[C@H](OC)[C@H](O)[C@@H](C)/C=C(\C)[C@@H]1OC(N)=O)C2=O` gave an IC50 of 3.39 µM. Compound `CO[C@H]1/C=C\C=C(/C)C(=O)NC2=CC(=O)C(NCCCCCCNC(=O)c3cncnc3)=C(C[C@@H](C)C[C@H](OC)[C@H](O)[C@@H](C)/C=C(\C)[C@@H]1OC(N)=O)C2=O` has an IC50 of 1.22 µM. In the case of `CO[C@H]1/C=C\C=C(/C)C(=O)NC2=CC(=O)C(NCCCCCCNC(=O)/C=C/c3ccc(C(F)(F)F)cc3)=C(C[C@@H](C)C[C@H](OC)[C@H](O)[C@@H](C)/C=C(\C)[C@@H]1OC(N)=O)C2=O`, the IC50 is reported as > 10 µM. `CO[C@H]1/C=C\C=C(/C)C(=O)NC2=CC(=O)C(NCCCCCCNC(=O)c3ccc(Br)cc3)=C(C[C@@H](C)C[C@H](OC)[C@H](O)[C@@H](C)/C=C(\C)[C@@H]1OC(N)=O)C2=O` gave an IC50 of 4.65 µM. `CO[C@H]1/C=C\C=C(/C)C(=O)NC2=CC(=O)C(NCCCCCCNC(=O)/C=C/c3ccc(OC(F)(F)F)cc3)=C(C[C@@H](C)C[C@H](OC)[C@H](O)[C@@H](C)/C=C(\C)[C@@H]1OC(N)=O)C2=O` was tested, and the IC50 was > 10 µM. `CO[C@H]1/C=C\C=C(/C)C(=O)NC2=CC(=O)C(NCCCCCCNC(=O)/C=C/c3ccc(O)c(O)c3)=C(C[C@@H](C)C[C@H](OC)[C@H](O)[C@@H](C)/C=C(\C)[C@@H]1OC(N)=O)C2=O` was tested, and the IC50 was 3.93 µM. `CO[C@H]1/C=C\C=C(/C)C(=O)NC2=CC(=O)C(NCCCCNC(=O)c3ccccc3O)=C(C[C@@H](C)C[C@H](OC)[C@H](O)[C@@H](C)/C=C(\C)[C@@H]1OC(N)=O)C2=O` showed an IC50 of 4.9 µM. `CO[C@H]1/C=C\C=C(/C)C(=O)NC2=CC(=O)C(NCCCCCCNC(=O)c3ccc(F)cc3)=C(C[C@@H](C)C[C@H](OC)[C@H](O)[C@@H](C)/C=C(\C)[C@@H]1OC(N)=O)C2=O` was tested, and the IC50 was 4.16 µM. For `CO[C@H]1/C=C\C=C(/C)C(=O)NC2=CC(=O)C(NCCCCCCNC(=O)/C=C/c3ccccc3C)=C(C[C@@H](C)C[C@H](OC)[C@H](O)[C@@H](C)/C=C(\C)[C@@H]1OC(N)=O)C2=O`, the IC50 was 6.91 µM. With `CO[C@H]1/C=C\C=C(/C)C(=O)NC2=CC(=O)C(NCCCCCCNC(=O)c3nc(C)c(C)nc3C)=C(C[C@@H](C)C[C@H](OC)[C@H](O)[C@@H](C)/C=C(\C)[C@@H]1OC(N)=O)C2=O` the IC50 was 3.12 µM. For `CO[C@H]1/C=C\C=C(/C)C(=O)NC2=CC(=O)C(NCCCCCCNC(=O)/C=C/c3cccc(O)c3)=C(C[C@@H](C)C[C@H](OC)[C@H](O)[C@@H](C)/C=C(\C)[C@@H]1OC(N)=O)C2=O`, the IC50 was 1.24 µM. In the case of `CO[C@H]1/C=C\C=C(/C)C(=O)NC2=CC(=O)C(NCC3CCN(C(=O)c4ccncc4)CC3)=C(C[C@@H](C)C[C@H](OC)[C@H](O)[C@@H](C)/C=C(\C)[C@@H]1OC(N)=O)C2=O`, the IC50 is reported as 2.84 µM. In the case of `CO[C@H]1/C=C\C=C(/C)C(=O)NC2=CC(=O)C(NCC3CCN(C(=O)c4cccnc4)CC3)=C(C[C@@H](C)C[C@H](OC)[C@H](O)[C@@H](C)/C=C(\C)[C@@H]1OC(N)=O)C2=O`, the IC50 is reported as 2.03 µM. Compound `CO[C@H]1/C=C\C=C(/C)C(=O)NC2=CC(=O)C(NCCCCCCNC(=O)c3cccs3)=C(C[C@@H](C)C[C@H](OC)[C@H](O)[C@@H](C)/C=C(\C)[C@@H]1OC(N)=O)C2=O` has an IC50 of 3.03 µM. For `CO[C@H]1/C=C\C=C(/C)C(=O)NC2=CC(=O)C(NCCCCNC(=O)/C=C/c3ccc(O)cc3)=C(C[C@@H](C)C[C@H](OC)[C@H](O)[C@@H](C)/C=C(\C)[C@@H]1OC(N)=O)C2=O`, the IC50 was 1.66 µM. For `COc1ccc(/C=C/C(=O)NCCCCCCNC2=C3C[C@@H](C)C[C@H](OC)[C@H](O)[C@@H](C)/C=C(\C)[C@H](OC(N)=O)[C@@H](OC)/C=C\C=C(/C)C(=O)NC(=CC2=O)C3=O)c(OC)c1OC`, the IC50 was 1.86 µM. Work on `CO[C@H]1/C=C\C=C(/C)C(=O)NC2=CC(=O)C(NCCCCCCNC(=O)c3ccccn3)=C(C[C@@H](C)C[C@H](OC)[C@H](O)[C@@H](C)/C=C(\C)[C@@H]1OC(N)=O)C2=O` yielded an IC50 of 1.73 µM. `CO[C@H]1/C=C\C=C(/C)C(=O)NC2=CC(=O)C(NCC3CCN(C(=O)/C=C/c4ccc(O)cc4)CC3)=C(C[C@@H](C)C[C@H](OC)[C@H](O)[C@@H](C)/C=C(\C)[C@@H]1OC(N)=O)C2=O` gave an IC50 of 1.68 µM. Work on `CO[C@H]1/C=C\C=C(/C)C(=O)NC2=CC(=O)C(NCCCCCCNC(=O)c3ccc(Cl)cc3)=C(C[C@@H](C)C[C@H](OC)[C@H](O)[C@@H](C)/C=C(\C)[C@@H]1OC(N)=O)C2=O` yielded an IC50 of 4.1 µM. Work on `CO[C@H]1/C=C\C=C(/C)C(=O)NC2=CC(=O)C(NCCCCNC(=O)c3ccccn3)=C(C[C@@H](C)C[C@H](OC)[C@H](O)[C@@H](C)/C=C(\C)[C@@H]1OC(N)=O)C2=O` yielded an IC50 of 3.14 µM.
